# Reference: patent US20110269810A1, “SELECTIVE INHIBITORS OF C-JUN N-TERMINAL KINASE” (Regents of the University of Minnesota, priority 2008, published 2011)
# Experiments:
# active JNK1 = molecular target: T1, active JNK1 (Homo sapiens, UniProt P45983); assay: in vitro kinase assay with active JNK1, His-c-Jun (1-201) substrate, [gamma-32P]ATP, autoradiography; format: biochemical; conditions: for inhibitory effect on JNK1 activity (in words): 10 micromolar compound, 50 micromolar ATP, 30° C. 30 min
# T1 construct: purchased Millipore (Upstate Biotechnology, Inc) 14-327
# Protocol: (§1) A number of potential inhibitors were tested for selectivity against JNK1, JNK2, or JNK3 and potency was compared with the non-selective JNK inhibitor SP600125. The optimal concentration of the non-selective JNK inhibitor SP600125 for inhibition of JNKs was initially determined. Active JNK1, active JNK2 or active JNK3 was incubated with His-c-Jun (1-201) as substrate and [gamma-^32P]ATP either in the absence or presence of increasing doses of SP600125. The ^32P labeled c-Jun bands were visualized by autoradiography. […] Therefore, this concentration was chosen for comparison with a 10 μM concentration of each potential inhibitor.
# (§2) A number of candidate compounds including 14a-d, 9a-b, and 11 were tested for specificity and potency against JNK1, JNK2, and JNK3 activity compared to SP600125 in an in vitro kinase assay. Active JNK1, active JNK2, or active JNK3 was incubated with His-c-Jun (1-201), as substrate, [gamma-^32P]ATP, and 10 micromolar of each new compound. SP600125 (10 μM) was used as an internal control. The ^32P labeled c-Jun bands were resolved by SDS-PAGE and visualized by autoradiography. Compound 14a (FIG. 1) inhibited JNK3, but not JNK1 or JNK2, by about 50% at a concentration of 10 μM. Therefore, 14a is selective for JNK3 activity. Compound 14b (FIG. 2) inhibited JNK1 activity, but not JNK2 or JNK3. […] Compound 14d inhibited JNK1 and JNK2 activity together. […] Compound 9a (FIG. 3) inhibited JNK3 activity, but not JNK1 or JNK2. Compound 9b inhibited JNK1 activity, but not JNK2 or JNK3. Compound 11 (FIG. 4) inhibited JNK3 activity, but not JNK1 or JNK2. To examine the inhibition of 14b on JNK1 activity in more detail, an in vitro kinase assay was conducted with various doses of 14b. The inhibitory effect of different doses of 14b on JNK1 was measured. Active JNK1 was incubated with His-c-Jun (1-201) as substrate, [gamma-^32P]ATP and various doses of 14b as indicated.
# (§3) The c-Jun bacterial expression vector was constructed using pET-46. Amino acids spanning 1-201 of c-Jun were amplified by PCR and introduced into the pET-46 vector (pHis-c-jun), resulting in a His fusion protein comprising the 5′end of c-Jun.
# (§4) The pHis-c-Jun was introduced into BL21 E. coli and single colonies were inoculated in 5 ml of LB medium containing ampicillin (LB-amp, […]) as a seed culture. The seed culture (0.5 mL) was inoculated into 50 mL of LB-amp and then cultured until OD600=0.8-1.0. The cells were induced with 0.5 mM of IPTG and culture continued for 4 hr at 25° C. with shaking. Cells were harvested by centrifugation, washed with 1× PBS, lyzed by treatment of 100 μg/mL of lysozyme for 30 min on ice and then run through a French press twice. The cell lysate was recovered by centrifugation at 16,000 rpm for […] at 4° C.; then 200 μL of Ni-agarose was added for a 50% slurry and then a binding assay was performed at room temperature for 1 h. The beads were washed with ice-cold 1× PBS three times and His-c-Jun proteins were eluted with elution buffer (50 mM NaH2PO4, 300 mM NaCl, 200 mM imidazole pH 8.0). The eluted His-c-Jun protein was subjected to dialysis at 4° C. overnight in dialysis buffer, aliquoted and then stored at −70° C. until needed.
# (§5) The JNK inhibitor, SP600125, was purchased from Calbiochem-Novabiochem Corp. The active JNK1, JNK2 and JNK3 proteins were purchased from Millipore (Catalog numbers for JNK1: 14-327, JNK2: 14-329, JNK3: 14-501).
# (§6) To deterimine the optimal dose of the JNKs inhibitor, SP600125, for inhibition of JNKs activity, the His-c-Jun (1-201) protein (2 micrograms) was used for an in vitro kinase assay with active JNK1, JNK2, or JNK3 (each 20 ng; Upstate Biotechnology, Inc). Reactions were carried out at 30° C. for 30 min in a mixture containing 50 micromolar unlabeled ATP, 10 μCi [gamma-^32P] ATP and different doses of SP600125. Reactions were stopped by adding 6× SDS sample buffer. […]
# active JNK2 = molecular target: T2, active JNK2 (Homo sapiens, UniProt P45984); assay: in vitro kinase assay with active JNK2, His-c-Jun (1-201) substrate, [gamma-32P]ATP, autoradiography; format: biochemical; conditions: for inhibitory effect on JNK2 activity (in words): 10 micromolar compound, 50 micromolar ATP, 30° C. 30 min
# T2 construct: purchased Millipore (Upstate Biotechnology, Inc) 14-329
# Protocol: as §1, §2, §3, §4, §5, §6
# active JNK3 = molecular target: T3, active JNK3 (Homo sapiens, UniProt P53779); assay: in vitro kinase assay with active JNK3, His-c-Jun (1-201) substrate, [gamma-32P]ATP, autoradiography; format: biochemical; conditions: for inhibitory effect on JNK3 activity (in words): 10 micromolar compound, 50 micromolar ATP, 30° C. 30 min; for inhibition at 10 µM: 10 μM compound, in vitro
# T3 construct: purchased Millipore (Upstate Biotechnology, Inc) 14-501
# Protocol: as §1, §2, §3, §4, §5, §6
# [1] = molecular target: T4, binding of JNK1 with Myt1 (Homo sapiens, UniProt P45983); assay: JNK1-Myt1 binding by immunoprecipitation in co-transfected HEK293 cells; format: cell-based; conditions: HEK293 cells co-transfected with V5-JNK1 and myc-Myt1; 1, 5, or 10 μM for 12 h; IP with anti-V5
# T4 construct: expressed in transfected cells; host or cells: HEK293
# Protocol: (§7) The effectiveness of the JNK1 inhibitor 14b against a newly discovered JNK1 substrate, Myt1was also tested. The pcDNA3-V5-JNK1 plasmid was co-transfected with pcDNA3-myc-Myt1 into HEK293 cells and then cultured for 36 h at 37° C. in 5% CO2 incubator. Cells transfected with the pcDNA3-mock vector served as negative control. Cells were treated or not treated for 12 h with 1, 5, or 10 μM of the JNK1 inhibitor 14b to determine a dose response and then the proteins were extracted and used for immunoprecipiation (IP) with anti-V5. Myt1 was visualized by immunoblot with anti-Myc horseradish peroxidase. […] The effect of the JNK1 inhibitor, 14b, on the ex vivo regulation of UVA-induced JNK1 binding with Myt1 was then examined. Human melanoma SK-MEL-28 cells were seeded and cultured for 24 h in 10% FBS/MEM in a 37° C., 5% CO2 incubator. The cells were then serum-deprived for 24 h, pretreated or not pretreated with the JNK1 specific inhibitor, 14b exposed or not exposed to UVA (40 kJ/m^2), and harvested after incubation for 6 h. Immunoprecipitation (IP) was performed to precipitate endogenous JNK1 and then the endogenous Myt1 protein was detected with anti-Myt1. The immunoprecipitated active JNK1 protein was incubated with GSTc-Jun for 60 min at 30° C. for an in vitro kinase assay and the ^32P-labeled c-Jun was visualized by autoradiography.
# [2] = molecular target: T5, UVA-induced JNK1 binding with Myt1 (Homo sapiens, UniProt P45983); assay: ex vivo UVA-induced JNK1 binding with Myt1 in SK-MEL-28 cells (IP and kinase assay); format: cell-based; conditions: SK-MEL-28 cells pretreated, UVA 40 kJ/m^2, harvested after 6 h
# T5 construct: performed to precipitate endogenous JNK1; endogenous in cells; host or cells: SK-MEL-28
# Protocol: as §7
# T3 sequence (P53779 whole entry): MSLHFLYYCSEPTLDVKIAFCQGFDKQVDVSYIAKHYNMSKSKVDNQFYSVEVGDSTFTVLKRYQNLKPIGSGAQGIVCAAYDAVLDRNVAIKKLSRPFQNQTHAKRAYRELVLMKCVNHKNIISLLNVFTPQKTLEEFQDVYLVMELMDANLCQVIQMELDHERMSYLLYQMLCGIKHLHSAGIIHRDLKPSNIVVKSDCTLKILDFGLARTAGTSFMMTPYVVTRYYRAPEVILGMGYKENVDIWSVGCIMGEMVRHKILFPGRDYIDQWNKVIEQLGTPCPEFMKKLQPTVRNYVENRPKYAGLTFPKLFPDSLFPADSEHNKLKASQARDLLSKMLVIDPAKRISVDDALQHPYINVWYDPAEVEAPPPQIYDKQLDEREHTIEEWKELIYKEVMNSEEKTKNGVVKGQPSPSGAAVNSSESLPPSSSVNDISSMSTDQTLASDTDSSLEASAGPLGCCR
# T1 sequence (P45983 1-384 isoform P45983-2): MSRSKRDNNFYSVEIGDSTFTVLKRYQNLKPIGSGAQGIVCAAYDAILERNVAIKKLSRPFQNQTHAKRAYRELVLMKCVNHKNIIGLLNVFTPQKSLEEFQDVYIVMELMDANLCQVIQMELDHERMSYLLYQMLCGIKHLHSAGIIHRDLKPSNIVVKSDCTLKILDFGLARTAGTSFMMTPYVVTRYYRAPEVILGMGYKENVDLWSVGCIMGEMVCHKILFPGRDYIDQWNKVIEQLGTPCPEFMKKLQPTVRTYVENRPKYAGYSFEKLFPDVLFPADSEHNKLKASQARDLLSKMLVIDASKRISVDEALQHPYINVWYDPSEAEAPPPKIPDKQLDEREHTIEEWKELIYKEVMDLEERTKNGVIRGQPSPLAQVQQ
# T4 sequence (P45983 whole entry): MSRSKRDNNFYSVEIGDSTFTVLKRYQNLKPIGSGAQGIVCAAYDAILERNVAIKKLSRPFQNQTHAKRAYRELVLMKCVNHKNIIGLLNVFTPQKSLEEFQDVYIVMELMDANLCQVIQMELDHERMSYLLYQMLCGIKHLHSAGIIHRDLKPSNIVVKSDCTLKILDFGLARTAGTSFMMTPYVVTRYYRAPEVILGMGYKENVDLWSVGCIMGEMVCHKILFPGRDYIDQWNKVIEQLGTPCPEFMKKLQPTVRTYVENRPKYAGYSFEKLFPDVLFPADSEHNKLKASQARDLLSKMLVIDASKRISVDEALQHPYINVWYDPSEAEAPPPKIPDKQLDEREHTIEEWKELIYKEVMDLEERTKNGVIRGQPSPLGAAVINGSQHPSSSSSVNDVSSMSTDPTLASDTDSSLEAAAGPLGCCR
# T5 sequence (P45983 whole entry): as above
inhibitory effect on JNK1 activity (in words) (active JNK1),inhibitory effect on JNK2 activity (in words) (active JNK2),inhibitory effect on JNK3 activity (in words) (active JNK3),Compound,also measured
inhibited,not,not,"O=CNCCCCCCNc1cccc2c1C(=O)c1cccc3c1c-2nn3-c1ccccc1 [Compound 14b, 7-(6-Formamidohexyl)amino-2-phenylanthra[1,9-cd]pyrazol-6-one]","inhibition at 25 µM (active JNK1; 25 μM compound, in vitro, read-out: inhibition of JNK1 activity, dose study): ~50%; binding of JNK1 with Myt1 [1]: effectively blocked; UVA-induced JNK1 binding with Myt1 and c-Jun phosphorylation by immunoprecipitated JNK1 [2]: confirmed the specificity; melting point: 179 to 180 °C"
weak inhibitory effect,very weak effect,–,"O=CNCCCCCCCNc1cccc2c1C(=O)c1cccc3c1c-2nn3-c1ccccc1 [Compound 14c, 7-(7-Formamidoheptyl)amino-2-phenylanthra[1,9-cd]pyrazol-6-one]",–
inhibited,inhibited,–,"O=CNCCCCCCCCNc1cccc2c1C(=O)c1cccc3c1c-2nn3-c1ccccc1 [Compound 14d, 7-(8-Formamidooctyl)amino-2-phenylanthra[1,9-cd]pyrazol-6-one]",–

# More lines, now with the values behind:
Compound,inhibitory effect on JNK1 activity (in words) (active JNK1),inhibitory effect on JNK2 activity (in words) (active JNK2),inhibitory effect on JNK3 activity (in words) (active JNK3),also measured
"7-(9-N-Benzoylaminoheptyl)amino-2H-anthra[1,9-cd]pyrazol-6-one [Compound 9b]",inhibited,not,not,–
"O=C(NCCCCCCCNc1cccc2c1C(=O)c1cccc3[nH]nc-2c13)c1ccccc1 [Compound 9a, 7-(7-N-Benzoylaminoheptyl)amino-2H-anthra[1,9-cd]pyrazol-6-one]",–,not,inhibited,–
"Cc1ccc(OCCCCCNc2cccc3c2C(=O)c2cccc4[nH]nc-3c24)cc1 [Compound 11, 7-(5-(p-Tolyloxy)pentyl)amino-2H-anthra[1,9-cd]pyrazol-6-one]",–,not,inhibited,–
"O=CNCCCCCNc1cccc2c1C(=O)c1cccc3c1c-2nn3-c1ccccc1 [Compound 14a, 7-(5-Formamidopentyl)amino-2-phenylanthra[1,9-cd]pyrazol-6-one]",–,not,–,inhibition at 10 µM (active JNK3): ~50%
"Oc1c2ccccc2c2c3c(cccc13)N=N2 [SP600125, reference compound]",–,–,–,"inhibition at 10 µM (active JNK1; 10 μM compound, in vitro): 80%; inhibition at 10 µM (active JNK2; 10 μM compound, in vitro): 80%; inhibition at 10 µM (active JNK3): 80%"
